Results taken from PMC11995724, “Antibiotic target discovery by integrated phenotypic and activity-based profiling of electrophilic fragments” (Cell chemical biology, 2025).

Experiment: in vitro
Conditions: human, hek293t cells
Method: Mammalian cytotoxicity measurement was performed using Cell Titer-Glo 2.0 Cell Viability Assay (Promega, G9243) according to the manufacturer protocol. In brief, mammalian cells were seeded into 384-well white plates (Greiner, 781080) and incubated at 37°C for one day. Compounds from the Cys-Library were dispensed into the assay plate using epMotion 96. The plates were then incubated at 37°C for two days. An equal volume of Cell Titer-Glo 2.0 reagent was added into each well of the assay plate using epMotion 96 and incubated at 22°C for 10 min, followed by luminescence measurement using a Cytation 5 plate reader (BioTek).

| SMILES | viability at 48 h, 25 µM |
| --- | --- |
| C=CC(=O)N(C)CC(=O)N1CCC(c2nc(-c3ccccc3)n[nH]2)CC1 [2-H20, N-methyl-N-{2-oxo-2-[4-(3-phenyl-1H-1,2,4-triazol-5-yl)piperidin-1-yl]ethyl}prop-2-enamide] | 67.6% |
| C=CC(=O)N1CC[C@H](NS(C)(=O)=O)C1 [2-H21, N-[(3S)-1-(prop-2-enoyl)pyrrolidin-3-yl]methanesulfonamide] | 60.7% |
| C=CC(=O)Nc1cc(NC(=O)[C@H]2C[C@@H](C(C)=O)C2(C)C)ccc1F [2-H22, (1S,3R)-3-acetyl-N-[4-fluoro-3-(prop-2-enamido)phenyl]-2,2-dimethylcyclobutane-1-carboxamide] | 97.4% |
| C=CC(=O)N1CC(c2ncon2)C1 [2-I03, 1-[3-(1,2,4-oxadiazol-3-yl)azetidin-1-yl]prop-2-en-1-one] | 181% |
| C=CC(=O)N1CCC(C(=O)N2CCn3ccnc32)CC1 [2-I04, 1-(4-{1H,2H,3H-[1,3]diazolo[1,2-a]imidazole-1-carbonyl}piperidin-1-yl)prop-2-en-1-one] | 99.3% |
| C=CC(=O)NCCN1CCOCC1C (centres unmarked) [2-I05, N-[2-(3-methylmorpholin-4-yl)ethyl]prop-2-enamide] | 79.2% |
| C=CC(=O)N1CCC(c2nnnn2C)CC1 [2-I06, 1-[4-(1-methyl-1H-1,2,3,4-tetrazol-5-yl)piperidin-1-yl]prop-2-en-1-one] | 95.6% |
| C=CC(=O)N1CCOC(c2ccccc2)C1 (centres unmarked) [2-I07, 1-(2-phenylmorpholin-4-yl)prop-2-en-1-one] | 118% |
| C=CC(=O)N(CC1CCOCC1)C1CC1 [2-I08, N-cyclopropyl-N-[(oxan-4-yl)methyl]prop-2-enamide] | 88% |
| C=CC(=O)NC[C@@H]1C[C@H](F)CN1Cc1csc(C)n1 [2-I09, N-{[(2S,4S)-4-fluoro-1-[(2-methyl-1,3-thiazol-4-yl)methyl]pyrrolidin-2-yl]methyl}prop-2-enamide] | 192% |
| C=CC(=O)N1CCC(c2cnn(C)c2)CC1 [2-I10, 1-[4-(1-methyl-1H-pyrazol-4-yl)piperidin-1-yl]prop-2-en-1-one] | 83.2% |
| C=CC(=O)NC(C)c1nnnn1-c1ccccc1 (centres unmarked) [2-I11, N-[1-(1-phenyl-1H-1,2,3,4-tetrazol-5-yl)ethyl]prop-2-enamide] | 196% |
| C=CC(=O)NCCNC(=O)c1c(C)cc(C)nc1C [2-I12, N-{2-[(2,4,6-trimethylpyridin-3-yl)formamido]ethyl}prop-2-enamide] | 104% |
| C=CC(=O)NCc1cn(-c2ccccc2)nn1 [2-I13, N-[(1-phenyl-1H-1,2,3-triazol-4-yl)methyl]prop-2-enamide] | 76.1% |
| C=CC(=O)N1CCC(C(=O)N(C)Cc2ccon2)CC1 [2-I14, N-methyl-N-[(1,2-oxazol-3-yl)methyl]-1-(prop-2-enoyl)piperidine-4-carboxamide] | 90.3% |
| C=CC(=O)N1CCC(c2ccnn2C)CC1 [2-I15, 1-[4-(1-methyl-1H-pyrazol-5-yl)piperidin-1-yl]prop-2-en-1-one] | 96.5% |
| C=CC(=O)NC1CC2(CCC(C(=O)O)CC2)C1 (centres unmarked) [2-I16, 2-(prop-2-enamido)spiro[3.5]nonane-7-carboxylic acid] | 92.8% |
| C=CC(=O)NC(c1nc(C)cs1)C(F)(F)F (centres unmarked) [2-I17, N-[2,2,2-trifluoro-1-(4-methyl-1,3-thiazol-2-yl)ethyl]prop-2-enamide] | 102% |
| C=CC(=O)Nc1cccc(C(=O)C(C)(C)C)c1 [2-I18, N-[3-(2,2-dimethylpropanoyl)phenyl]prop-2-enamide] | 105% |
| C=CC(=O)N1CC2(CCCC2)CC1CO (centres unmarked) [2-I19, 1-[3-(hydroxymethyl)-2-azaspiro[4.4]nonan-2-yl]prop-2-en-1-one] | 82.4% |
| C=CC(=O)N(C)CC(=O)NCc1c(O)nnc(C)c1C [2-I20, N-({[(3-hydroxy-5,6-dimethylpyridazin-4-yl)methyl]carbamoyl}methyl)-N-methylprop-2-enamide] | 91.6% |
| C=CC(=O)Nc1ccc(C(=O)N2CCCC2C(=O)NC2CC2)cc1 (centres unmarked) [2-I21, N-cyclopropyl-1-[4-(prop-2-enamido)benzoyl]pyrrolidine-2-carboxamide] | 175% |
| C=CC(=O)Nc1ccc(N2CCCCC2)c(F)c1 [2-I22, N-[3-fluoro-4-(piperidin-1-yl)phenyl]prop-2-enamide] | 92.5% |
| C=CC(=O)NCC1CCc2nnc(C(C)C)n2C1 (centres unmarked) [2-J03, N-{[3-(propan-2-yl)-5H,6H,7H,8H-[1,2,4]triazolo[4,3-a]pyridin-6-yl]methyl}prop-2-enamide] | 60.6% |
| C=CC(=O)N(C)CC(=O)N1CCOC(c2ccccc2Cl)C1 (centres unmarked) [2-J04, N-{2-[2-(2-chlorophenyl)morpholin-4-yl]-2-oxoethyl}-N-methylprop-2-enamide] | 72.1% |

| SMILES | viability at 48 h, 25 µM |
| --- | --- |
| C=CC(=O)NC(C)C(c1ccccc1Cl)n1cccn1 (centres unmarked) [2-J05, N-[1-(2-chlorophenyl)-1-(1H-pyrazol-1-yl)propan-2-yl]prop-2-enamide] | 84.5% |
| C=CC(=O)N1CCC(C(=O)N2CCC(Cc3ncon3)CC2)CC1 [2-J06, 1-(4-{4-[(1,2,4-oxadiazol-3-yl)methyl]piperidine-1-carbonyl}piperidin-1-yl)prop-2-en-1-one] | 74.2% |
| C=CC(=O)NCc1c(Cl)c(C(F)(F)F)nn1C [2-J07, N-{[4-chloro-1-methyl-3-(trifluoromethyl)-1H-pyrazol-5-yl]methyl}prop-2-enamide] | 72.8% |
| C=CC(=O)N1CCC(C(=O)N[C@H]2CC[C@@H](S(C)(=O)=O)CC2)CC1 [2-J08, 1-(prop-2-enoyl)-N-[(1s,4s)-4-methanesulfonylcyclohexyl]piperidine-4-carboxamide] | 86.3% |
| C=CC(=O)N1CCC(C(=O)Nc2cccc(-c3n[nH]c(C)n3)c2)CC1 [2-J09, N-[3-(5-methyl-1H-1,2,4-triazol-3-yl)phenyl]-1-(prop-2-enoyl)piperidine-4-carboxamide] | 58.8% |
| C=CC(=O)N1CCC(C(=O)N2CCCC(C)(CC)C2)CC1 (centres unmarked) [2-J10, 1-[4-(3-ethyl-3-methylpiperidine-1-carbonyl)piperidin-1-yl]prop-2-en-1-one] | 67.4% |
| C=CC(=O)NCC(O)c1ncccc1OC (centres unmarked) [2-J11, N-[2-hydroxy-2-(3-methoxypyridin-2-yl)ethyl]prop-2-enamide] | 80.8% |
| C=CC(=O)N1CCC(C(=O)N(C)CCn2cccn2)CC1 [2-J12, N-methyl-1-(prop-2-enoyl)-N-[2-(1H-pyrazol-1-yl)ethyl]piperidine-4-carboxamide] | 74.5% |
| C=CC(=O)N(C)Cc1cn(C2CC2)cn1 [2-J13, N-[(1-cyclopropyl-1H-imidazol-4-yl)methyl]-N-methylprop-2-enamide] | 76.5% |
| C=CC(=O)N1CCC(C(=O)N2CCC(CC(N)=O)C2)CC1 (centres unmarked) [2-J14, 2-{1-[1-(prop-2-enoyl)piperidine-4-carbonyl]pyrrolidin-3-yl}acetamide] | 65% |
| C=CC(=O)NCc1ccsc1S(N)(=O)=O [2-J15, N-[(2-sulfamoylthiophen-3-yl)methyl]prop-2-enamide] | 53.1% |
| C=CC(=O)N(CC)CC(=O)N1CC(C)(C)C1c1nccn1C (centres unmarked) [2-J16, N-{2-[3,3-dimethyl-2-(1-methyl-1H-imidazol-2-yl)azetidin-1-yl]-2-oxoethyl}-N-ethylprop-2-enamide] | 59.5% |
| C=CC(=O)NC1(Cn2cccn2)CC(F)(F)C1 [2-J17, N-{3,3-difluoro-1-[(1H-pyrazol-1-yl)methyl]cyclobutyl}prop-2-enamide] | 54.5% |
| C=CC(=O)NCCNC(=O)[C@@]12CC[C@@](C)(C(=O)O1)C2(C)C [2-J18, N-(2-{[(1S,4R)-4,7,7-trimethyl-3-oxo-2-oxabicyclo[2.2.1]heptan-1-yl]formamido}ethyl)prop-2-enamide] | 52.8% |
| C=CC(=O)NC1CCS(=O)(=O)c2ccc(F)cc21 (centres unmarked) [2-J19, N-(6-fluoro-1,1-dioxo-3,4-dihydro-2H-1lambda6-benzothiopyran-4-yl)prop-2-enamide] | 55.4% |
| C=CC(=O)NCc1ccc(C(=O)N2CCC(C(C)(C)O)CC2)cc1 [2-J20, N-({4-[4-(2-hydroxypropan-2-yl)piperidine-1-carbonyl]phenyl}methyl)prop-2-enamide] | 74.2% |
| C=CC(=O)N1CCC(c2nnc3n2CCCC3)CC1 [2-J21, 1-(4-{5H,6H,7H,8H-[1,2,4]triazolo[4,3-a]pyridin-3-yl}piperidin-1-yl)prop-2-en-1-one] | 67.6% |
| C=CC(=O)N(C)CC(=O)N1CCN(C(=O)c2cccc(O)c2)CC1 [2-J22, N-{2-[4-(3-hydroxybenzoyl)piperazin-1-yl]-2-oxoethyl}-N-methylprop-2-enamide] | 97.7% |
| C=CC(=O)N1CCC(c2nc(C(=O)O)co2)CC1 [2-K03, 2-[1-(prop-2-enoyl)piperidin-4-yl]-1,3-oxazole-4-carboxylic acid] | 99.1% |
| C=CC(=O)N1CCC(C(=O)N[C@H]2CCC[C@H]2O)CC1 [2-K04, N-[(1S,2R)-2-hydroxycyclopentyl]-1-(prop-2-enoyl)piperidine-4-carboxamide] | 84.2% |
| C=CC(=O)N(Cc1ccc(Cl)o1)C1CCCC12CCOCC2 (centres unmarked) [2-K05, N-[(5-chlorofuran-2-yl)methyl]-N-{8-oxaspiro[4.5]decan-1-yl}prop-2-enamide] | 99.7% |
| C=CC(=O)N1C2CCCC1CC1(C2)NC(=O)NC1=O (centres unmarked) [2-K06, 9-(prop-2-enoyl)-9-azaspiro[bicyclo[3.3.1]nonane-3,4'-imidazolidine]-2',5'-dione] | 89.2% |
| C=CC(=O)N1CCCCC1Cn1ccnn1 (centres unmarked) [2-K07, 1-{2-[(1H-1,2,3-triazol-1-yl)methyl]piperidin-1-yl}prop-2-en-1-one] | 89.3% |
| C=CC(=O)NCCC(=O)N1CCSC(C)CC1 (centres unmarked) [2-K08, N-[3-(7-methyl-1,4-thiazepan-4-yl)-3-oxopropyl]prop-2-enamide] | 91.8% |
| C=CC(=O)N1CCC(c2nc(N(C)C)no2)CC1 [2-K09, 1-{4-[3-(dimethylamino)-1,2,4-oxadiazol-5-yl]piperidin-1-yl}prop-2-en-1-one] | 194% |
